# Laboratory results reported in article PMC8966664 (Frontiers in Pharmacology, 2022).
# Columns and labels:
# [1] = target: T1, CYP2B2 (Rattus norvegicus, UniProt P04167); design: method as in Otten et al., 2011; details: CYP enzyme 2B2; cocktail probe substrate parameter, source not stated; ref Otten et al., 2011; cited from earlier work
# T1 construct: and 1 mg/ml rat liver microsomes; from tissue; host or cells: rat liver microsomes
# T1 sequence (P04167 1-491): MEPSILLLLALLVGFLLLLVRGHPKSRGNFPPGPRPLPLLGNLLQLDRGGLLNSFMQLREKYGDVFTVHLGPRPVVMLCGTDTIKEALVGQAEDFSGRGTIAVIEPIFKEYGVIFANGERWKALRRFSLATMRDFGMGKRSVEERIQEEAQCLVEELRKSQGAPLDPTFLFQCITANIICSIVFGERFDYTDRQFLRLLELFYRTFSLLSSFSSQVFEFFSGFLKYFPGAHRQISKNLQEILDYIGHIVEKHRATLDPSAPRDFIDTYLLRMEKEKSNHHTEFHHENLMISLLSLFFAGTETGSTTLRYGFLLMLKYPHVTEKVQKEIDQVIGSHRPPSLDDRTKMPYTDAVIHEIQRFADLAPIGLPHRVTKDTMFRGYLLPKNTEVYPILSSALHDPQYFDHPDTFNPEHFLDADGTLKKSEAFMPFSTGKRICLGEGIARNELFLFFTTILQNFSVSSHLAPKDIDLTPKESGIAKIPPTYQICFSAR
# [2] = test system: bacterial ß-D-glucuronidase; design: method as in Takeda et al., 1996; details: gastrointestinal tract, after oral administration; ref Takeda et al., 1996; cited from earlier work
# [3] = target: T2, CYP2D1 (Rattus norvegicus, UniProt P10633); design: method as in Otten et al., 2011; details: CYP enzyme 2D1; cocktail probe substrate parameter, source not stated; ref Otten et al., 2011; cited from earlier work
# T2 construct: and 1 mg/ml rat liver microsomes; from tissue; host or cells: rat liver microsomes
# T2 sequence (P10633 1-504): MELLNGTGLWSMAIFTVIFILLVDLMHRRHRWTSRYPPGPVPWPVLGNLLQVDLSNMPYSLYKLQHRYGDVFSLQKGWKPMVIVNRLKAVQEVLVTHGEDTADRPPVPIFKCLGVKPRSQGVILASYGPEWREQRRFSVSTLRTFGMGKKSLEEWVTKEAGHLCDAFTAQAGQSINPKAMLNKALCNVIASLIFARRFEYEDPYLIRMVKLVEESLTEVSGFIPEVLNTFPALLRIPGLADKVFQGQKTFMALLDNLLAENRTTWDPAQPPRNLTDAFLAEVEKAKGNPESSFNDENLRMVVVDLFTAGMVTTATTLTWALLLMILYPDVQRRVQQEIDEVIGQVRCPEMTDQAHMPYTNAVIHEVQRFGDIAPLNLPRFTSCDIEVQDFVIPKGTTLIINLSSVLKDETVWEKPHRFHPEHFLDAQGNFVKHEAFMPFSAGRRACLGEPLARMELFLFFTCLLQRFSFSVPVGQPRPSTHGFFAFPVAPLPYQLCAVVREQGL
# [4] = target: T3, CYP2A2 (Rattus norvegicus, UniProt P15149); design: method as in Otten et al., 2011; details: CYP enzyme 2A2; cocktail probe substrate parameter, source not stated; ref Otten et al., 2011; cited from earlier work
# T3 construct: and 1 mg/ml rat liver microsomes; from tissue; host or cells: rat liver microsomes
# T3 sequence (P15149 whole entry): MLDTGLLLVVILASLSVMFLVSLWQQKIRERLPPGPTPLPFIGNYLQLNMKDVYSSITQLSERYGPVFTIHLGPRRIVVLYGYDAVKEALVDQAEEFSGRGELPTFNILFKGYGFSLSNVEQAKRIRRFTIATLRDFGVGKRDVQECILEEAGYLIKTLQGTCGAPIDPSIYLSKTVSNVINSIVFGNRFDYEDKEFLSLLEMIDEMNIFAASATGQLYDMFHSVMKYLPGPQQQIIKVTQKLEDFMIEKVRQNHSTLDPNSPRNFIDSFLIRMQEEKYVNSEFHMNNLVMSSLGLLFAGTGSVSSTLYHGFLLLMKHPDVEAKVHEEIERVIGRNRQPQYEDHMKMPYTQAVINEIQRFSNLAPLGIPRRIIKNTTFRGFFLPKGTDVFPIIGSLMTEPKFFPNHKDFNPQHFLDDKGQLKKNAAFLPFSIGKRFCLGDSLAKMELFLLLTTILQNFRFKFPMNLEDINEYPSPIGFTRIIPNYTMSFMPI
# [5] = target: T4, CYP2C11 (Rattus norvegicus, UniProt P08683); design: method as in Otten et al., 2011; details: CYP enzyme 2C11; cocktail probe substrate parameter, source not stated; ref Otten et al., 2011; cited from earlier work
# T4 construct: and 1 mg/ml rat liver microsomes; from tissue; host or cells: rat liver microsomes
# T4 sequence (P08683 1-500): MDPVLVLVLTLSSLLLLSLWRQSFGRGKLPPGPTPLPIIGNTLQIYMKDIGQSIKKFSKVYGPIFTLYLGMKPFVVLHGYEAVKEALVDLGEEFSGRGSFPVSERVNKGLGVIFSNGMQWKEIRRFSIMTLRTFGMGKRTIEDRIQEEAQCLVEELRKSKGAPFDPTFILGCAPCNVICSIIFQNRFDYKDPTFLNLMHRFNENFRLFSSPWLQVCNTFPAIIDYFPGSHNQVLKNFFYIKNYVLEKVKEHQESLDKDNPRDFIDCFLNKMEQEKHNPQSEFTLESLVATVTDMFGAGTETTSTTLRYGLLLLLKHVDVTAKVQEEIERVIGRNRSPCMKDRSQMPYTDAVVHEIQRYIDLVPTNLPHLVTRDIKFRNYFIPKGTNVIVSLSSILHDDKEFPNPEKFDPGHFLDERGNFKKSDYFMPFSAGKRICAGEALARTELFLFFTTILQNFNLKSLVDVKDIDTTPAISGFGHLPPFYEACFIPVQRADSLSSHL
# [6] = test system: rat liver microsomes; test: Formation of 7,9-diGS-DHP from RTS in rat liver microsomes; format: biochemical; details: KCZ 25 µM; 1 mg/ml rat liver microsomes, 200 µM RTS
# Experimental: The injection volume was 3 μL. […] The injection volume was 5 µL.
# [7] = test system: CYP1A2; details: CYP enzyme 1A2; cocktail probe substrate parameter, source not stated; ref Otten et al., 2011; cited from earlier work
structure (smiles),measurement,setting,value
CC(NC(C)(C)C)C(=O)c1cccc(Cl)c1 (stereo not shown) [Bupropion],Km,[1],67 to 168 µM
"CC1(C)[C@@H](O[C@H]2O[C@H](C(=O)O)[C@@H](O)[C@H](O)[C@H]2O[C@@H]2O[C@H](C(=O)O)[C@@H](O)[C@H](O)[C@H]2O)CC[C@]2(C)[C@H]3C(=O)C=C4[C@@H]5C[C@@](C)(C(=O)O)CC[C@]5(C)CC[C@@]4(C)[C@]3(C)CC[C@@H]12 [GL, Glycyrrhizin]",fraction of GL irreversibly transformed into 18β-GA,[2],~100%
COc1ccc2c(c1)[C@]13CCCC[C@@H]1[C@H](C2)N(C)CC3 [Dextromethorphan],Km,[3],0.4 to 8.5 µM
O=c1ccc2ccccc2o1 [Coumarin],Km,[4],0.3 to 2.3 µM
CC[C@@]1(c2ccccc2)NC(=O)N(C)C1=O [S-Mephenytoin],Km,[5],13 to 35 µM
"CC(=O)N1CCN(c2ccc(OCC3COC(Cn4ccnc4)(c4ccc(Cl)cc4Cl)O3)cc2)CC1 (stereo not shown) [KCZ, ketoconazole]","reduction of the formation of 7,9-diGS-DHP",[6],62%
CCOc1ccc(NC(C)=O)cc1 [Phenacetin],Km,[7],1.7 to 152 µM
